Assay results published in article PMC8924211 (Nature Communications, 2022).
Positions count from the first letter of the chain named.

Experiments:
Experiment in all cases: Calcium assay, HEK293/Gα16 cells, GAL2R mutants
Type in all cases: cell-based
GAL2R mutants [1] = target: T1, GAL2R mutants (Homo sapiens, UniProt O43603, I256A); details: GAL2R I2566.55A
T1 construct: expressed in transfected cells; host or cells: HEK293
T1 sequence (O43603 1-387 I256A): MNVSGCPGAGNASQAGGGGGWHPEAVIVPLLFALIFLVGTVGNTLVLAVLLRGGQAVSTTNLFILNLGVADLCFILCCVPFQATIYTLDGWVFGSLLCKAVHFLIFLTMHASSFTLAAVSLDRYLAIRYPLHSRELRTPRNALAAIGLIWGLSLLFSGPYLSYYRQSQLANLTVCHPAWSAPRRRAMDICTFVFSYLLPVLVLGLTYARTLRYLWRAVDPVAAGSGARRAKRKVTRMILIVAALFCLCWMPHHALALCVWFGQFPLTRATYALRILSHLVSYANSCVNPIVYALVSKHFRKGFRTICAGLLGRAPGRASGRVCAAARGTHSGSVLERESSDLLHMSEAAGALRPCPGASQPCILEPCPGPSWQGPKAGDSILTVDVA

GAL2R mutants [2] = target: T2, GAL2R mutants (Homo sapiens, UniProt O43603, L255A); details: GAL2R L2556.54A
T2 construct: expressed in transfected cells; host or cells: HEK293
T2 sequence (O43603 1-387 L255A): T1 sequence (O43603 1-387 I256A) with L255A, A256I

GAL2R mutants [3] = target: T3, GAL2R mutants (Homo sapiens, UniProt O43603, L266A); details: GAL2R L266ECL3A
T3 construct: expressed in transfected cells; host or cells: HEK293
T3 sequence (O43603 1-387 L266A): T1 sequence (O43603 1-387 I256A) with A256I, L266A

GAL2R mutants [4] = target: T4, GAL2R mutants (Homo sapiens, UniProt O43603, T267A); details: GAL2R T2677.28A
T4 construct: expressed in transfected cells; host or cells: HEK293
T4 sequence (O43603 1-387 T267A): T1 sequence (O43603 1-387 I256A) with A256I, T267A

GAL2R mutants [5] = target: T5, GAL2R mutants (Homo sapiens, UniProt O43603, V259A); details: GAL2R V2596.58A
T5 construct: expressed in transfected cells; host or cells: HEK293
T5 sequence (O43603 1-387 V259A): T1 sequence (O43603 1-387 I256A) with A256I, V259A

[6] = response of 100 μM spexin compared to WT, mean ± S.E.M.

Emax (GAL2R mutants [1]; [6]): 67.24±0.5% | Emax (GAL2R mutants [1]; spexin, replicate 1): 66.4324% | EC50 (GAL2R mutants [1]; spexin, replicate 2): 437.9 nM | Emax (GAL2R mutants [1]; spexin, replicate 2): 67.278% | EC50 (GAL2R mutants [1]; spexin, replicate 3): 924.3 nM | Emax (GAL2R mutants [1]; spexin, replicate 3): 68.0243% | Emax (GAL2R mutants [2]; [6]): 26.65±5.9% | Emax (GAL2R mutants [2]; spexin, replicate 1): 16.7892% | EC50 (GAL2R mutants [2]; spexin, replicate 2): 245.4 nM | Emax (GAL2R mutants [2]; spexin, replicate 2): 26.0726% | EC50 (GAL2R mutants [2]; spexin, replicate 3): 845.1 nM | Emax (GAL2R mutants [2]; spexin, replicate 3): 37.0775% | Emax (GAL2R mutants [3]; [6]): 103.14±6.2% | EC50 (GAL2R mutants [3]; spexin, replicate 1): 25140 nM | Emax (GAL2R mutants [3]; spexin, replicate 1): 98.5714% | EC50 (GAL2R mutants [3]; spexin, replicate 2): 15280 nM | Emax (GAL2R mutants [3]; spexin, replicate 2): 95.5224% | EC50 (GAL2R mutants [3]; spexin, replicate 3): 11990 nM | Emax (GAL2R mutants [3]; spexin, replicate 3): 115.328% | Emax (GAL2R mutants [4]; [6]): 19.9±3.4% | EC50 (GAL2R mutants [4]; spexin, replicate 1): 0.8339 nM | Emax (GAL2R mutants [4]; spexin, replicate 1): 26.5588% | EC50 (GAL2R mutants [4]; spexin, replicate 2): 10490 nM | Emax (GAL2R mutants [4]; spexin, replicate 2): 17.6424% | EC50 (GAL2R mutants [4]; spexin, replicate 3): 1506 nM | Emax (GAL2R mutants [4]; spexin, replicate 3): 15.5083% | Emax (GAL2R mutants [5]; [6]): 68.4±5.7% | EC50 (GAL2R mutants [5]; spexin, replicate 1): 1328 nM | Emax (GAL2R mutants [5]; spexin, replicate 1): 60.401% | EC50 (GAL2R mutants [5]; spexin, replicate 2): 6622 nM | Emax (GAL2R mutants [5]; spexin, replicate 2): 65.4165% | EC50 (GAL2R mutants [5]; spexin, replicate 3): 6153 nM | Emax (GAL2R mutants [5]; spexin, replicate 3): 79.3756%
Substance: spexin
